Measured values reported in patent US20250222146A1, “Radiopharmaceuticals Targeting Somatostatin Receptor 2 and Uses Thereof” (RayzeBio, Inc., priority 2023, published 2025).
pKi: −log10 of the molar value. Numbered stars: 1 amine (or outer) side, 2 acyl side, 3 side chain; on linkers, the order of the positions; unused ones are H or OH. Square brackets hold non-standard residues; d marks the D form. Peptide text beside a SMILES is read from it. * marks the point of attachment. DOTA(Lu)NH(CH2)6NHCOCH2 = O=C(CN1CCN2CCN3CCN(CC1)CC(=O)[O][Lu]([O]C(=O)C2)[O]C(=O)C3)NCCCCCCNC(=O)C*; DOTA(Lu) = O=C1CN2CCN3CCN(CC(=O)*)CCN(CC2)CC(=O)[O][Lu]([O]1)[O]C(=O)C3; Ala(piperidin-4-yl) = O=C([C@H](CC1CCN([*:3])CC1)N[*:1])[*:2]; dTrp(βS-Me) = C[C@@H](c1c[nH]c2ccccc12)[C@@H](N)C(=O)O; Tyr(3,5-F2) = N[C@@H](Cc1cc(F)c(O)c(F)c1)C(=O)O; X19 = O=C([C@H](Cc1c[nH]c2ccncc12)N[*:1])[*:2]; Dip = N[C@H](C(=O)O)C(c1ccccc1)c1ccccc1; NMehCys = CN[C@@H](CCS)C(=O)O; NMeK = CN[C@@H](CCCCN)C(=O)O; Ethyl(2-NH2) = NCC*

What follows are molecules tested against SSTR2 (Homo sapiens, UniProt P30874) (assay: SSTR binding affinity by radioligand binding competition assay ([125I]-Tyr11-Somatostatin, membrane extracts)). Details: SSTR2 Ki, radioligand competition, [125I]-Tyr11-Somatostatin 0.1 nM, membrane extracts; Ki from IC50 by Cheng Prusoff.
Sequence of SSTR2 (P30874 whole entry): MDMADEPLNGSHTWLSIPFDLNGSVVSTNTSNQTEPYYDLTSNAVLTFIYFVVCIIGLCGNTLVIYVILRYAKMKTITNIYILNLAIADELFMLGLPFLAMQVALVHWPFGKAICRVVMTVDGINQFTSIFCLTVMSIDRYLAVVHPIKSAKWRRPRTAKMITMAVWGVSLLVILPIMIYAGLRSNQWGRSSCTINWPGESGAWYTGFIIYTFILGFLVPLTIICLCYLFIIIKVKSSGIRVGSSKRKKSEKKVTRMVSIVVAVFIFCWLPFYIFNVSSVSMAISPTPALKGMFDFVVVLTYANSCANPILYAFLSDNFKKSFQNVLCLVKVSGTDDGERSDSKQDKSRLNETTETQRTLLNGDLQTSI

| Structure (SMILES) | pKi |
| --- | --- |
| C[C@@H](O)[C@@H]1NC(=O)[C@@H](CCCCN)NC(=O)[C@@H](Cc2c[nH]c3ccccc23)NC(=O)[C@H](Cc2ccc(O)cc2)NC(=O)[C@H](CCSCC(=O)NCCCCCCNC(=O)CN2CCN3CCN4CCN(CC2)CC(=O)[O][Lu]([O]C(=O)C3)[O]C(=O)C4)N(C)C(=O)[C@H](Cc2ccccc2)NC1=O [RB-0005827] | 7.48 to 8.00 |
| C[C@@H](O)[C@@H]1NC(=O)[C@H](CCCCN)NC(=O)[C@H](Cc2c[nH]c3ccccc23)NC(=O)[C@H](Cc2ccc(O)cc2)NC(=O)[C@H](CCSCC(=O)NCCCCCCNC(=O)CN2CCN3CCN4CCN(CC2)CC(=O)[O][Lu]([O]C(=O)C3)[O]C(=O)C4)N(C)C(=O)[C@H](Cc2ccccc2)NC1=O [RB-0005858] | 8.48 to 9.00 |
| C[C@@H](O)[C@@H]1NC(=O)[C@H](CCCCN)NC(=O)[C@@H](Cc2c[nH]c3ccccc23)NC(=O)[C@H](Cc2ccc(O)cc2)NC(=O)[C@@H](CCSCC(=O)NCCCCCCNC(=O)CN2CCN3CCN4CCN(CC2)CC(=O)[O][Lu]([O]C(=O)C3)[O]C(=O)C4)N(C)C(=O)[C@H](Cc2ccccc2)NC1=O [RB-0005866] | 8.48 to 9.00 |
| C[C@@H](O)[C@@H]1NC(=O)[C@H](CCCCN)NC(=O)[C@H](Cc2c[nH]c3ccccc23)NC(=O)[C@H](Cc2ccc(O)cc2)NC(=O)[C@H](CCSCC(=O)NCCCCCCNC(=O)CN2CCN3CCN4CCN(CC2)CC(=O)[O][Lu]([O]C(=O)C3)[O]C(=O)C4)N(C)C(=O)[C@H](Cc2ccccc2)NC1=O [RB-0005905] | > 9.00 |
| C[C@@H](O)[C@@H]1NC(=O)[C@H](CCCCN)NC(=O)[C@H](Cc2c[nH]c3ccccc23)NC(=O)[C@H](Cc2ccc(O)cc2)NC(=O)[C@H](CCSCC(=O)NCCCCCCNC(=O)CN2CCN3CCN4CCN(CC2)CC(=O)[O][Lu]([O]C(=O)C3)[O]C(=O)C4)N(C)C(=O)[C@H](Cc2ccccc2)NC1=O [RB-0005907] | 8.00 to 8.48 |

Same assay, conditions: radioligand competition, [125I]-Tyr11-Somatostatin 0.1 nM, membrane extracts; Ki from IC50 by Cheng Prusoff; read-out: SSTR2 Ki

| Structure (SMILES) | pKi |
| --- | --- |
| C[C@@H]1NC(=O)[C@H](CCSCC(=O)NCCCCCCNC(=O)CN2CCN3CCN4CCN(CC2)CC(=O)[O][Lu]([O]C(=O)C3)[O]C(=O)C4)N(C)C(=O)[C@H](Cc2ccccc2)NC(=O)[C@H]([C@@H](C)O)NC(=O)[C@H](CCCCN)NC(=O)[C@@H](Cc2c[nH]c3ccccc23)NC1=O [RB-0005696] (cyclo(A[dW]KTF[NMehCys](DOTA(Lu)NH(CH2)6NHCOCH2))) | 7.48 to 8.00 |
| C[C@@H](O)[C@@H]1NC(=O)[C@H](CCCCN)NC(=O)[C@@H](Cc2c[nH]c3ccccc23)NC(=O)[C@H](Cc2ccc(O)cc2)NC(=O)[C@H](CCNC(=O)CCCCCNC(=O)CN2CCN3CCN4CCN(CC2)CC(=O)[O][Lu]([O]C(=O)C3)[O]C(=O)C4)N(C)C(=O)[C@H](Cc2ccccc2)NC1=O [RB-0005717] | 7.48 to 8.00 |
| C[C@@H](O)[C@@H]1NC(=O)[C@H](CCCCN)NC(=O)[C@@H](Cc2c[nH]c3ccccc23)NC(=O)[C@H](Cc2ccc(O)cc2)NC(=O)[C@H](CNC(=O)CCCCCNC(=O)CN2CCN3CCN4CCN(CC2)CC(=O)[O][Lu]([O]C(=O)C3)[O]C(=O)C4)N(C)C(=O)[C@H](Cc2ccccc2)NC1=O [RB-0005728] | 8.00 to 8.48 |
| C[C@@H](O)[C@@H]1NC(=O)[C@H](CCCCN)NC(=O)[C@@H](Cc2c[nH]c3ccccc23)NC(=O)[C@H](Cc2ccc(O)cc2)NC(=O)[C@H](CNC(=O)[C@H](CC(=O)O)NC(=O)CCCCCNC(=O)CN2CCN3CCN4CCN(CC2)CC(=O)[O][Lu]([O]C(=O)C3)[O]C(=O)C4)N(C)C(=O)[C@H](Cc2ccccc2)NC1=O [RB-0005730] | > 9.00 |
| C[C@@H](O)[C@@H]1NC(=O)[C@H](CCCCN)NC(=O)[C@@H](Cc2c[nH]c3ccccc23)NC(=O)[C@H](Cc2ccc(O)cc2)NC(=O)[C@H](CNC(=O)C[C@H](NC(=O)CCCCCNC(=O)CN2CCN3CCN4CCN(CC2)CC(=O)[O][Lu]([O]C(=O)C3)[O]C(=O)C4)C(=O)O)N(C)C(=O)[C@H](Cc2ccccc2)NC1=O [RB-0005732] | 7.00 to 7.48 |
| C[C@@H](O)[C@@H]1NC(=O)[C@H](CCCCN)NC(=O)[C@@H](Cc2c[nH]c3ccccc23)NC(=O)[C@H](Cc2ccc(O)cc2)NC(=O)[C@H](CNC(=O)[C@@H](CC(=O)O)NC(=O)CCCCCNC(=O)CN2CCN3CCN4CCN(CC2)CC(=O)[O][Lu]([O]C(=O)C3)[O]C(=O)C4)N(C)C(=O)[C@H](Cc2ccccc2)NC1=O [RB-0005734] | 8.48 to 9.00 |
| C[C@@H](O)[C@@H]1NC(=O)[C@H](CCCCN)NC(=O)[C@@H](Cc2c[nH]c3ccccc23)NC(=O)[C@H](Cc2ccc(O)cc2)NC(=O)[C@H](CNC(=O)C[C@@H](NC(=O)CCCCCNC(=O)CN2CCN3CCN4CCN(CC2)CC(=O)[O][Lu]([O]C(=O)C3)[O]C(=O)C4)C(=O)O)N(C)C(=O)[C@H](Cc2ccccc2)NC1=O [RB-0005736] | 8.00 to 8.48 |
| C[C@@H](O)[C@@H]1NC(=O)[C@H](CCCCN)NC(=O)[C@@H](Cc2c[nH]c3ccccc23)NC(=O)[C@H](Cc2ccc(O)cc2)NC(=O)[C@H](CCSCC(=O)NCCOCCOCCOCCNC(=O)CN2CCN3CCN4CCN(CC2)CC(=O)[O][Lu]([O]C(=O)C3)[O]C(=O)C4)N(C)C(=O)[C@H](COc2ccccc2)NC1=O [RB-0005738] | > 9.00 |
| C[C@@H](O)[C@@H]1NC(=O)[C@H](CCCCN)NC(=O)[C@@H](Cc2c[nH]c3ccccc23)NC(=O)[C@H](Cc2cc(F)c(O)c(F)c2)NC(=O)[C@H](CCSCC(=O)NCCCCCCNC(=O)CN2CCN3CCN4CCN(CC2)CC(=O)[O][Lu]([O]C(=O)C3)[O]C(=O)C4)N(C)C(=O)[C@H](Cc2ccccc2)NC1=O [RB-0005740] (cyclo(F[NMehCys](DOTA(Lu)NH(CH2)6NHCOCH2)[Tyr(3,5-F2)][dW]KT)) | > 9.00 |
| C[C@@H]1NC(=O)[C@H](CCCCN)NC(=O)[C@@H](Cc2c[nH]c3ccccc23)NC(=O)[C@H](Cc2ccc(O)cc2)NC(=O)[C@H](CCSCC(=O)NCCCCCCNC(=O)CN2CCN3CCN4CCN(CC2)CC(=O)[O][Lu]([O]C(=O)C3)[O]C(=O)C4)N(C)C(=O)[C@H](Cc2ccccc2)NC1=O [RB-0005744] (cyclo(AF[NMehCys](DOTA(Lu)NH(CH2)6NHCOCH2)Y[dW]K)) | > 9.00 |
| C[C@@H](O)[C@@H]1NC(=O)[C@H](CC2CCNCC2)NC(=O)[C@@H]([C@@H](C)c2c[nH]c3ccccc23)NC(=O)[C@H](Cc2ccc(O)cc2)NC(=O)[C@H](CCCCNC(=O)CN2CCN3CCN4CCN(CC2)CC(=O)[O][Lu]([O]C(=O)C3)[O]C(=O)C4)N(C)C(=O)[C@H](Cc2ccccc2)NC1=O [RB-0005797] (cyclo(F[NMeK](DOTA(Lu))Y[dTrp(βS-Me)][Ala(piperidin-4-yl)]T)) | > 9.00 |
| C[C@@H]1NC(=O)[C@H]([C@@H](C)O)NC(=O)[C@H](CC2CCNCC2)NC(=O)[C@@H]([C@@H](C)c2c[nH]c3ccccc23)NC(=O)[C@H](Cc2ccc(O)cc2)NC(=O)[C@H](CCSCC(=O)NCCCCCCNC(=O)CN2CCN3CCN4CCN(CC2)CC(=O)[O][Lu]([O]C(=O)C3)[O]C(=O)C4)N(C)C1=O [RB-0005807] (cyclo(A[NMehCys](DOTA(Lu)NH(CH2)6NHCOCH2)Y[dTrp(βS-Me)][Ala(piperidin-4-yl)]T)) | > 9.00 |
| C[C@@H]1NC(=O)[C@H]([C@@H](C)O)NC(=O)[C@H](CC2CCNCC2)NC(=O)[C@@H](Cc2c[nH]c3ccccc23)NC(=O)[C@H](C(c2ccccc2)c2ccccc2)NC(=O)[C@H](CCSCC(=O)NCCCCCCNC(=O)CN2CCN3CCN4CCN(CC2)CC(=O)[O][Lu]([O]C(=O)C3)[O]C(=O)C4)N(C)C1=O [RB-0005809] (cyclo(A[NMehCys](DOTA(Lu)NH(CH2)6NHCOCH2)[Dip][dW][Ala(piperidin-4-yl)]T)) | 8.48 to 9.00 |
| C[C@@H](O)[C@@H]1NC(=O)[C@H](CCCCN)NC(=O)[C@@H](Cc2c[nH]c3ccccc23)NC(=O)[C@H](Cc2ccc(O)cc2)NC(=O)[C@H](C2CCN(C(=O)CCCCCNC(=O)CN3CCN4CCN5CCN(CC3)CC(=O)[O][Lu]([O]C(=O)C4)[O]C(=O)C5)CC2)N(C)C(=O)[C@H](Cc2ccccc2)NC1=O [RB-0005852] | 7.00 to 7.48 |
| C[C@@H](O)[C@@H]1NC(=O)[C@H](CCCCN)NC(=O)[C@@H](Cc2c[nH]c3ccccc23)NC(=O)[C@H](Cc2ccc(O)cc2)NC(=O)[C@H](CC2CCN(C(=O)CCCCCNC(=O)CN3CCN4CCN5CCN(CC3)CC(=O)[O][Lu]([O]C(=O)C4)[O]C(=O)C5)CC2)N(C)C(=O)[C@H](Cc2ccccc2)NC1=O [RB-0005854] | 7.48 to 8.00 |
| C[C@@H](O)[C@@H]1NC(=O)[C@H](CCCCN)NC(=O)[C@@H](Cc2c[nH]c3ccccc23)NC(=O)[C@H](Cc2ccc(O)cc2)NC(=O)[C@H](CCSCC(=O)NCCCCCCNC(=O)CN2CCN3CCN4CCN(CC2)CC(=O)[O][Lu]([O]C(=O)C3)[O]C(=O)C4)N(C)C(=O)[C@@H]2CCCN2C1=O [RB-0005864] (cyclo(KTP[NMehCys](DOTA(Lu)NH(CH2)6NHCOCH2)Y[dW])) | 8.48 to 9.00 |
| C[C@@H](O)[C@@H]1NC(=O)[C@H](CCCCN)NC(=O)[C@@H](Cc2c[nH]c3ccccc23)NC(=O)[C@H](Cc2ccc(O)cc2)NC(=O)[C@H](CC(=O)NCCCCCCNC(=O)CN2CCN3CCN4CCN(CC2)CC(=O)[O][Lu]([O]C(=O)C3)[O]C(=O)C4)N(C)C(=O)[C@H](Cc2ccccc2)NC1=O [RB-0005895] | 8.00 to 8.48 |
| C[C@@H](O)[C@@H]1NC(=O)[C@H](COCCN)NC(=O)[C@@H](Cc2c[nH]c3ccccc23)NC(=O)[C@H](Cc2ccc(O)cc2)NC(=O)[C@H](CCSCC(=O)NCCCCCCNC(=O)CN2CCN3CCN4CCN(CC2)CC(=O)[O][Lu]([O]C(=O)C3)[O]C(=O)C4)N(C)C(=O)[C@H](Cc2ccccc2)NC1=O [RB-0005899] (cyclo(F[NMehCys](DOTA(Lu)NH(CH2)6NHCOCH2)Y[dW]S(Ethyl(2-NH2))T)) | > 9.00 |
| C[C@@H](O)[C@@H]1NC(=O)[C@H](CCCCN)NC(=O)[C@H](Cc2c[nH]c3ccncc23)NC(=O)[C@H](Cc2ccc(O)cc2)NC(=O)[C@H](CCSCC(=O)NCCCCCCNC(=O)CN2CCN3CCN4CCN(CC2)CC(=O)[O][Lu]([O]C(=O)C3)[O]C(=O)C4)N(C)C(=O)[C@H](Cc2ccccc2)NC1=O [RB-0005903] (cyclo(F[NMehCys](DOTA(Lu)NH(CH2)6NHCOCH2)Y[X19]KT)) | > 9.00 |
